From patent US10450549B2, “Aryloxyphenoxypropionate tolerance in turfrgass species and use of AAD1 as a selectable marker” (Dow AgroSciences, LLC, priority 2004, dated 2019)

Assays:
[1] = target: AAD2 (v1) (Bradyrhizobium diazoefficiens, UniProt Q89UC4); assay: Colorimetric phenol assay of AAD2 (v1) E. coli extract / partially purified enzyme; format: biochemical, Bradyrhizobium japonicum; settings: for A510 AAD2: substrate 0.5 mM, 15 min, 25 mM MOPS pH 6.8, 3 μl AAD2 extract (42 μg protein)
[2] = target: T1, AAD1 (v1) (Sphingobium herbicidovorans, UniProt Q8KSC8); assay: Colorimetric phenol detection assay of AAD1 (v1) activity (purified enzyme or E. coli extract); format: biochemical; settings: for A510, AAD1 (10x): 10 μg purified AAD1 (v1) per 0.16 ml assay; for activity of AAD1 (v1) E. coli extract on substrate: 0.5 mM substrate, 4 μl extract; for activity of purified AAD1 (v1) on substrate: 1 mM substrate, 1 or 10 μg enzyme
T1 construct: made in house; host or cells: E. coli BL-21 Star (DE3), plasmid pDAB3203

[3] = test system: wt ARBTH; assay: In vitro plate test of herbicide cross resistance: wild-type Arabidopsis; format: in vivo, Arabidopsis thaliana; settings: 7 days
Protocol: (§1) The ability of AAD1 (v3) to provide resistance to other aryloxyphenoxyalkanoate herbicides in transgenic Arabidopsis was determined using a modified in vitro plate assay. Seeds from wild-type Arabidopsis thaliana as well as Arabidopsis thaliana containing the plant optimized AAD1 (v3) gene (T4 homozygous plants id=PAAD1.315.064) were sterilized by agitating for 10 min in a 50% bleach solution. These seeds were then rinsed four times with sterile water to remove the bleach.
(§2) Dose response assays utilized a nutrient media (see below) supplemented with various rates of test compounds. The test compounds were added to the heated media (55° C.) as concentrated solutions in DMSO. Control wells had the appropriate amount of DMSO without any additional compound. The final concentration of DMSO never exceeded 1% (v/v). After thorough mixing, a 6 mL aliquot of the warm media containing the appropriate concentration of compound was added to each well of a 6-well, flat bottom, polystyrene tissue culture tray (Falcon 353046, Becton Dickson and Company, Franklin Lakes, N.J.). After the media solidified, approximately 20 to 30 Arabidopsis seeds were applied on top of the solidified media and the remaining 2 mL of media was poured over the seeds. The plates were lightly agitated to disperse the seeds, covered and allowed to cool until the media had completely solidified. The plates were incubated for 7 days at 25° C. under continual fluorescent lighting (75 μE m^−2 s^−1). Nutrient Media Composition was as described in Example 2.2 and in Somerville and Orgen (1982).
(§3) Assessment of Growth Reduction. The apical portion of the Arabidopsis plants grown in the treated media was assessed visually relative to the apical portion of the plants grown in the media containing only DMSO. Values were recorded as % growth reduction. Assessments of root growth inhibition of the Arabidopsis plants grown in the treated media were achieved by carefully extracting the plants from the media and measuring the length of the root. These root lengths were then compared to the root length of the control plants to determine a % growth reduction. A minimum of five plants were assessed for each treatment. The values recorded are an average of all the plants assessed. The calculated concentration to reach 50% inhibition effect (I50) were determined for both root and shoots of wildtype and AAD1-transformed Arabidopsis. The ratios of resistant to sensitive biotypes are included in Table 19. A ratio>2 for both root and shoot measurements generally signifies significant resistance. The higher the ratio, the greater the level of resistance. […] The broad phenoxy auxin resistance is the first reported in planta.

[4] = test system: PAAD1.315.064 ARBTH; assay: In vitro plate test of herbicide cross resistance: homozygous T4 AAD1 (v3) Arabidopsis; format: in vivo, Arabidopsis thaliana; settings: for root ratio / shoot ratio: resistant to sensitive biotype, >2 signifies resistance; for PAAD1.315.064 ARBTH root 150 / PAAD1.315.064 T3 ARBTH shoot 150: 7 days
Protocol: as §1, §2, §3

[5] = test system: transformed-control line containing PAT and Cry1F; assay: Foliar-applied auxinic herbicides on control (PAT/Cry1F, wildtype) Arabidopsis, % injury 14 DAT; format: in vivo, Arabidopsis thaliana; settings: PatCry1f - Control
Protocol: (§4) The ability of AAD1 (v3) to provide resistance to other aryloxyphenoxyalkanoate auxin herbicides in transgenic Arabidopsis was determined by foliar application of various substrates described in Example 6.8. T4 generation Arabidopsis seed, homozygous for AAD1 (v3) (line AAD1.01.315.076) was stratified, and sown into selection trays much like that of Arabidopsis (Example 6.4). A transformed-control line containing PAT and the insect resistance gene Cry1F was planted in a similar manner. Seedlings were transferred to individual 3-inch pots in the greenhouse. All plants were sprayed with the use of a track sprayer set at 187 L/ha. […] All applications were formulated in 200 mM Hepes buffer (pH 7.5). Each treatment was replicated 3-4 times. Plants were evaluated at 3 and 14 days after treatment and are averaged over two experiments.

[6] = test system: T4 Arabidopsis homozygous for AAD1 (v3) (line AAD1.01.315.076); assay: Foliar-applied auxinic herbicides on homozygous T4 AAD1 (v3) Arabidopsis, % injury 14 DAT; format: in vivo, Arabidopsis thaliana; settings: AAD1.01.315.076.T4 homozygous AAD1 plants
Protocol: as §4

[7] = Table 4, substrate 1 mM, 1 μg purified AAD1 (v1) per 0.16 ml assay
[8] = substrate 0.5 mM, 15 min, 25 mM MOPS pH 6.8, 4 μl AAD1 (32 μg protein) extract

C[C@@H](Oc1ccc(Oc2cnc3cc(Cl)ccc3n2)cc1)C(=O)O [(R)- quizalofop]
A510 AAD2 [1]: 0.01 | A510, AAD1 [2, 7]: 0.43 | A510, AAD1 (10x) ([2]; Table 4, substrate 1 mM): 2.1 | kcat ([2]; purified AAD1 (v1)): 0.315 s⁻¹ | Vmax ± SE ([2]; purified AAD1 (v1), Michaelis-Menten fit): 0.57 ± 0.03 μmol min^−1 mg^−1 AAD1 | A510, AAD1 [2, 8]: 0.27

C[C@H](Oc1ccc(Oc2ccc(C#N)cc2F)cc1)C(=O)O [(S)- cyhalofop]
A510 AAD2 [1]: 0.15 | activity of AAD1 (v1) E. coli extract on substrate ([2]; 15 min): no activity | activity of purified AAD1 (v1) on substrate [2]: Minimal activity | A510, AAD1 [2, 7]: 0.003 | A510, AAD1 (10x) ([2]; Table 4, substrate 1 mM): 0.017 | A510, AAD1 [2, 8]: 0

Nc1c(Cl)c(Cl)nc(C(=O)O)c1Cl [Picloram]
wt ARBTH root 150 [3]: 0.3 ppm | wt ARBTH shoot 150 [3]: 1 ppm | root ratio [4]: 0.5 | shoot ratio [4]: 0.5 | resistance afforded by AAD1 (v3) in plate test ([4]; root and shoot assessment): did not effectively protect | PAAD1.315.064 ARBTH root 150 [4]: 0.15 ppm | PAAD1.315.064 T3 ARBTH shoot 150 [4]: 0.5 ppm

Cc1cc(Cl)ccc1OCC(=O)O [MCPA]
wt ARBTH root 150 [3]: 0.01 ppm | wt ARBTH shoot 150 [3]: 0.2 ppm | rate of product formation relative to 2,4-D ([2]; 1 mM, 27 μg crude recombinant AAD1 (v1) per assay): 55% | A510 ([2]; Table 8, 1 mM, 27 μg crude recombinant AAD1 (v1) extract from E. coli): 0.097 | % 2,4-D ([2]; Table 8, relative to 2,4-D, crude AAD1 (v1) extract): 55% | root ratio [4]: 3 | shoot ratio [4]: 5 | PAAD1.315.064 ARBTH root 150 [4]: 0.03 ppm | PAAD1.315.064 T3 ARBTH shoot 150 [4]: 1 ppm

O=C(O)COc1cc(Cl)c(Cl)cc1Cl [2,4,5-T]
wt ARBTH root 150 [3]: <0.01 ppm | wt ARBTH shoot 150 [3]: 1.5 ppm | Ave % Injury 14DAT ([5]; 8.75 g ae/ha foliar): 0% | Ave % Injury 14DAT ([5]; 17.5 g ae/ha foliar): 20% | Ave % Injury 14DAT ([5]; 35 g ae/ha foliar): 43% | Ave % Injury 14DAT ([5]; 70 g ae/ha foliar): 85% | Ave % Injury 14DAT ([5]; 140 g ae/ha foliar): 95% | Ave % Injury 14DAT ([5]; 280 g ae/ha foliar): 98% | Ave % Injury 14DAT ([5]; 560 g ae/ha foliar): 100% | Ave % Injury 14DAT ([5]; 1120 g ae/ha foliar): 100% | Ave % Injury 14DAT ([6]; 8.75 g ae/ha foliar): 0% | Ave % Injury 14DAT ([6]; 17.5 g ae/ha foliar): 3% | Ave % Injury 14DAT ([6]; 35 g ae/ha foliar): 0% | Ave % Injury 14DAT ([6]; 70 g ae/ha foliar): 3% | Ave % Injury 14DAT ([6]; 140 g ae/ha foliar): 0% | Ave % Injury 14DAT ([6]; 280 g ae/ha foliar): 0% | Ave % Injury 14DAT ([6]; 560 g ae/ha foliar): 17% | Ave % Injury 14DAT ([6]; 1120 g ae/ha foliar): 3% | shoot ratio [4]: 6.67 | PAAD1.315.064 ARBTH root 150 [4]: <0.01 ppm | PAAD1.315.064 T3 ARBTH shoot 150 [4]: 10 ppm

CC(Oc1ccc(Oc2ncc(C(F)(F)F)cc2Cl)cc1)C(=O)O (racemic) [haloxyfop]
A510 AAD2 [1]: 0.3 | A510, AAD1 [2, 8]: 0.1

CC(Oc1ccc(Oc2ncc(C(F)(F)F)cc2Cl)cc1)C(=O)O (stereo not shown) [compound 8671]
A510 AAD2 [1]: 0 | A510, AAD1 [2, 8]: 0.12

O=S(=O)(O)COc1ccc(Cl)cc1Cl [2,4-D sulfonate]
AAD2 (v1) activity on substrate ([1]; E. coli extract): little or no detectable phenol | phenol produced by AAD1 (v1) relative to 2,4-D ([2]; another test): ~25%

C[C@@H](Oc1ccc(Oc2nc3ccc(Cl)cc3o2)cc1)C(=O)O [(R)- fenoxaprop]
A510 AAD2 [1]: 0 | A510, AAD1 [2, 7]: 0.408 | A510, AAD1 (10x) ([2]; Table 4, substrate 1 mM): 0.597 | A510, AAD1 [2, 8]: 0.14

O=C(O)COc1ccc(Oc2ncc(C(F)(F)F)cc2Cl)cc1 [haloxyfop- oxyacetate]
A510 AAD2 [1]: 0.22 | activity of purified AAD1 (v1) on substrate [2]: cleaved very slowly | A510, AAD1 [2, 7]: 0.004 | A510, AAD1 (10x) ([2]; Table 4, substrate 1 mM): 0.053 | A510, AAD1 [2, 8]: 0

C[C@@H](Oc1ccc(Oc2ccc(C#N)cc2F)cc1)C(=O)O [(R)- cyhalofop]
A510 AAD2 [1]: 0 | A510, AAD1 [2, 7]: 0.222 | A510, AAD1 (10x) ([2]; Table 4, substrate 1 mM): 1.989 | A510, AAD1 [2, 8]: 0.14

Cc1cc(Cl)ccc1OC(C)C(=O)O (racemic) [(R,S)-mecoprop]
wt ARBTH root 150 [3]: 0.01 ppm | wt ARBTH shoot 150 [3]: 2 ppm | Ave % Injury 14DAT ([5]; 12.5 g ae/ha foliar): 0% | Ave % Injury 14DAT ([5]; 25 g ae/ha foliar): 2% | Ave % Injury 14DAT ([5]; 50 g ae/ha foliar): 17% | Ave % Injury 14DAT ([5]; 100 g ae/ha foliar): 33% | Ave % Injury 14DAT ([5]; 200 g ae/ha foliar): 62% | Ave % Injury 14DAT ([5]; 400 g ae/ha foliar): 78% | Ave % Injury 14DAT ([5]; 800 g ae/ha foliar): 93% | Ave % Injury 14DAT ([5]; 1600 g ae/ha foliar): 100% | activity of AAD1 (v1) E. coli extract on substrate ([2]; 15 min): cleaved | A510, AAD1 ([2]; Table 3, substrate 1 mM, 1 μg purified AAD1 (v1) per 0.16 ml assay, 15 min): 0.341 | A510, AAD1 (10x) ([2]; Table 3, substrate 1 mM, 15 min): 2.085 | Ave % Injury 14DAT ([6]; 12.5 g ae/ha foliar): 3% | Ave % Injury 14DAT ([6]; 25 g ae/ha foliar): 0% | Ave % Injury 14DAT ([6]; 50 g ae/ha foliar): 0% | Ave % Injury 14DAT ([6]; 100 g ae/ha foliar): 0% | Ave % Injury 14DAT ([6]; 200 g ae/ha foliar): 3% | Ave % Injury 14DAT ([6]; 400 g ae/ha foliar): 0% | Ave % Injury 14DAT ([6]; 800 g ae/ha foliar): 0% | Ave % Injury 14DAT ([6]; 1600 g ae/ha foliar): 0% | root ratio [4]: 150 | shoot ratio [4]: 12.5 | PAAD1.315.064 ARBTH root 150 [4]: 1.5 ppm | PAAD1.315.064 T3 ARBTH shoot 150 [4]: 25 ppm

CC(Oc1ccc(Oc2ccc(C#N)cc2F)cc1)C(=O)O (racemic) [(R,S)- cyhalofop]
A510 AAD2 [1]: 0.1 | A510, AAD1 [2, 7]: 0.215 | A510, AAD1 (10x) ([2]; Table 4, substrate 1 mM): 1.815 | A510, AAD1 [2, 8]: 0.12
